Measurements reported in ChEMBL document CHEMBL1201862, “PubChem BioAssay data set” (2004).
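Five concentrations, 48 hours, 96-well plates. GI50 marks 50% less growth.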 Activity calls are given as the source filed them. No stated cut-off is given here; in the data, active = GI50 up to about 1.1 µM and inactive = higher.

Key:
Assay in all cases: DTP human tumour cell line panel, 48 h
[1] = system: U-251
[2] = system: EKVX
[3] = system: ACHN
[4] = system: SK-MEL-5
[5] = system: HOP-92
[6] = system: MDA-MB-231
[7] = system: RXF 393
[8] = system: A498
[9] = system: Malme-3M
[10] = system: HOP-62
[11] = system: OVCAR-8
[12] = system: LOX IMVI
[13] = system: SW-620
[14] = system: Hs-578T
[15] = system: NCI/ADR-RES
[16] = system: SK-MEL-28
[17] = system: SN12C
[18] = system: SF-268
[19] = system: RPMI-8226
[20] = system: HL-60

Measured: GI50

CC(CCC(=O)O)(c1ccc(O)cc1)c1ccc(O)cc1
inactive: [1] > 100 µM | [2] > 100 µM | [3] > 100 µM | [4] > 100 µM | [5] > 100 µM | [6] > 100 µM | [7] > 100 µM | [8] > 100 µM | [9] > 100 µM | [10] > 100 µM | [11] > 100 µM | [12] > 100 µM | [13] > 100 µM | [14] > 100 µM | [15] > 100 µM | [16] > 100 µM | [17] > 100 µM | [18] > 100 µM

COC(=O)C1CC2C=CC1N(C(=O)OCc1ccccc1)C2 (stereo not drawn)
inactive: [1] > 100 µM | [2] 91.4 µM | [3] > 100 µM | [4] 92 µM | [6] > 100 µM | [7] > 100 µM | [8] > 100 µM | [9] 26 µM | [19] > 100 µM | [10] > 100 µM | [11] > 100 µM | [20] > 100 µM | [12] > 100 µM | [13] > 100 µM | [14] > 100 µM | [15] > 100 µM | [16] > 100 µM | [17] > 100 µM | [18] > 100 µM

O=C1CC(=O)NC(NN2C(=O)CSC2C(=O)c2ccco2)=N1 (stereo not drawn)
inactive: [1] > 100 µM | [3] > 100 µM | [4] > 100 µM | [5] > 100 µM | [6] > 100 µM | [7] > 100 µM | [8] > 100 µM | [9] > 100 µM | [19] > 100 µM | [10] > 100 µM | [11] > 100 µM | [13] > 100 µM | [14] > 100 µM | [15] > 100 µM | [16] > 100 µM | [17] > 100 µM | [18] > 100 µM

CCOC(=O)c1[nH]c(-c2[nH]c(-c3[nH]c(-c4[nH]c(C(=O)OCC)c(C)c4C(=O)OCC)c(C(=O)OCC)c3C)c(C)c2C(=O)OCC)c(C(=O)OCC)c1C
inactive: [1] > 100 µM | [2] > 100 µM | [3] > 100 µM | [4] 50.4 µM | [6] > 100 µM | [7] > 100 µM | [8] > 100 µM | [9] > 100 µM | [19] > 100 µM | [10] > 100 µM | [11] > 100 µM | [20] > 100 µM | [12] > 100 µM | [13] > 100 µM | [14] > 100 µM | [15] > 100 µM | [16] > 100 µM | [17] > 100 µM | [18] > 100 µM

O=c1n(N=[S+]([O-])(c2ccccc2)c2ccccc2)c(=O)n2n1C1C=CC2CC1
inactive: [1] > 100 µM | [2] > 100 µM | [3] > 100 µM | [4] > 100 µM | [5] > 100 µM | [6] > 100 µM | [8] > 100 µM | [19] > 100 µM | [10] > 100 µM | [11] > 100 µM | [20] > 100 µM | [12] > 100 µM | [13] > 100 µM | [14] > 100 µM | [15] > 100 µM | [16] > 100 µM | [17] > 100 µM | [18] > 100 µM

COc1cc(Cc2cc3c(c(C(=O)O)c2Br)OCO3)cc(OC)c1OC
inactive: [1] > 100 µM | [2] > 100 µM | [3] > 100 µM | [4] 51.1 µM | [5] 55.5 µM | [6] > 100 µM | [8] > 100 µM | [9] 57.8 µM | [10] > 100 µM | [11] > 100 µM | [20] 21.7 µM | [12] 83.8 µM | [13] 69.2 µM | [14] > 100 µM | [15] 85.3 µM | [16] > 100 µM | [17] > 100 µM
